Assay results reported in patent US20240374739A1, “BILE ACID CONJUGATE” (Curtin University, priority 2021, published 2024).

Assays:
[1] = system: rat model of repeated sub-concussion; experiment: Beamwalk test, rat model of repeated sub-concussion (Experimental Example 6); assay type: in vivo, Female PVG rats; details: rats, 12-week repeated sub-concussion, 2 cm beam; probucol 0.1% w/w, HA-1 0.2% w/w in diet (FIG. 20B)
Text: (§1) Female PVG rats aged 5-7 weeks were used. Under complete anaesthesia with isoflurane, a 25 g weight was dropped onto lambda of the skull from a 1 m height. This was repeated consecutively for 10 times per procedure. The procedure was repeated 3 times per week (i.e., Monday, Wednesday, Friday) for the duration of 12 weeks. Sham group rats received the same procedure without the weight drops. The probucol treatment group received probucol which was supplemented into the diet at 0.1% w/w. The HA-1 treatment group received HA-1 also in the diet at 0.2% w/w for the entire duration of the study.
(§2) After the completion of 12-week sub-concussion procedures, neuromotor function was tested with established rotarod and beamwalk tests. On beamwalk, the higher the slips show, the more impairment. On rotarod, the lower the latency indicates the more impairment.

diabetic db/db mice [2] = experiment: Novel Object Recognition Test in diabetic db/db mice (Experimental Example 5); assay type: in vivo; details: at 14 weeks of age
Method: Cognitive function in diabetic db/db mice was tested with Passive Avoidance and Novel Object Recognition tests. For both tests, the higher the value, the better the memory.
The mice were administered with either probucol, HA-1 or apoCIII antisense from 5 weeks of age, and cognitive performance was tested at 14 weeks of age.

[3] = system: rat model of repeated sub-concussion; experiment: Neuronal oxidative stress (8dOHG expression), rat model of repeated sub-concussion; assay type: in vivo, Female PVG rats; details: rats, 12-week repeated sub-concussion
Text: as §1
The rats were then sacrificed to obtain brain tissue for further analyses.

diabetic db/db mice [4] = experiment: BBB integrity (IgG extravasation) in diabetic db/db mice; assay type: in vivo; details: for IgG extravasation in CTX: 28-week old
Text: (§3) In this study, 4-5 week old diabetic db/db mice were put onto a diet containing probucol 0.1% (w/w) or HA-1 0.2% (w/w) for either 10 or 24 weeks, till the age of 14 or 28 weeks, respectively. Passive avoidance test was used to assess short-term memory. Subsequently, the mice were sacrificed to obtain plasma and brain tissue samples for further analyses.

Pancreatic NIT-1 β-cells = experiment: MTT viability assay on pancreatic NIT-1 β-cells; assay type: cell-based; details: glucose 25.5 mM (hyperglycemic); 10 μM probucol, 10 μM HA-1
Method: Cells were grown and processed in a Dulbecco's Modified Eagle's media with 11.5% foetal bovine serum, as per the protocols described below.
Specifically, the cells were cultured on T-75 cm^2 tissue culture flasks (Thermo Fisher Scientific®, Australia) and fed with Dulbecco's modified Eagle's medium (DMEM) (Gibco, Life Technologies, USA) supplemented with either 5.5 mM glucose or 25.5 mM glucose (Sigma Chemical Co, USA), 11.5% fetal bovine serum (Thermo Fisher Scientific, Australia), and 5% penicillin-streptomycin (Thermo Fisher Scientific, Australia). The β-cells were incubated in an environment of 5% CO2 in humidified air at 37° C. using a Nuaire NU-8500 Water Jacket CO2 Incubator (Nuaire, USA) for 72 hours.
The MTT assay for cellular mitochondrial activity is a common and an important analytical technique for determining the degree of cell viability and biological activity. Briefly, MTT was prepared as 5 mg/ml stock solution (Sigma Chemical CO, USA) in phosphate buffer, at pH 7.4 (Thermo Fisher Scientific, Australia). The undissolved residues were removed by sterile filtration. The stock solution was stored in a sterile environment at 4° C. in the dark and used within 7 days of preparation. […] Formazan was dissolved in 100 μl of dimethyl sulfoxide (DMSO) (Sigma Chemical CO, USA) via reverse pipetting and the resultant purple solution was analysed photometrically at 550 nm.

diabetic db/db mice [5] = experiment: Plasma amyloid-β (Aβ40, Aβ42, oligomers, Aβ42/40 ratio) in diabetic db/db mice; assay type: in vivo
Text: as §3, with “analyses. […]” for “analyses.”

[6] = system: rat model of repeated sub-concussion; experiment: Rotarod test, rat model of repeated sub-concussion (Experimental Example 6); assay type: in vivo, Female PVG rats; details: rats, 12-week repeated sub-concussion; probucol 0.1% w/w, HA-1 0.2% w/w in diet (FIG. 20A)
Text: as §1, §2

diabetic db/db mice [7] = experiment: Oxidative stress and neuroinflammation (8dOHG, GFAP, Iba-1 expression) in diabetic db/db mice; assay type: in vivo; details: for expression of 8dOHG in HPF: db/db mice (FIG. 28A); for expression of 8dOHG in CTX: db/db mice (FIG. 28B); for expression of GFAP in HPF: db/db mice (FIG. 28C); for expression of GFAP in CTX: db/db mice (FIG. 28D); for expression of Iba-1 in HPF: db/db mice (FIG. 28E); for expression of Iba-1 in CTX: db/db mice (FIG. 28F)
Text: as §3
GFAP is a marker of astrocyte activation, which may confer anti-inflammatory effect.
Iba-1 expression indicates microglial activation, which is a surrogate marker of neuroinflammation.

[8] = system: Neurodegenerated cells (Parkinson's disease model); experiment: Adenosine triphosphate (ATP) assay, Parkinson's disease model; assay type: cell-based, human; details: PD model; probucol 20 μM, SPQ 10 μM, HA-1 10 μM, L-Dopa 50 μM, 24 hours
Method: Perinatal tissue derived human stem cell model for Parkinson's disease (PD) was prepared using proprietary protocols to test the effect of new drug entities. Drug treatment was for 24 hours in all the assays.
Impaired energy metabolism and reduced ATP levels are common features of PD. Using the stem cell derived PD model, we measured ATP levels in drug treated (probucol, SPQ and HA-1 and L-Dopa) cells and compared with neurodegenerated (ND) cells.
Neurodegenerated cells were incubated with probucol (20 μM), SPQ (10 μM), HA-1 (10 μM) and L-Dopa (50 μM) for 24 hours (p<0.05; *p<0.05, **p<0.001, ***p<0.0001, ns=non-significant, n=3).

Compound	foot slips in beamwalk test [1]	Novel Object Recognition Test preference index (diabetic db/db mice [2])	expression of 8dOHG (oxidative stress) in HPF and CTX [3]	IgG extravasation in HPF (diabetic db/db mice [4]; 14 weeks of age)	IgG extravasation in CTX (diabetic db/db mice [4])	IgG extravasation in HPF (diabetic db/db mice [4]; 28 weeks)	NIT-1 cell viability (Pancreatic NIT-1 β-cells)	plasma Aβ40 (diabetic db/db mice [5]; 14 weeks of age)	plasma Aβ42 (diabetic db/db mice [5]; 14 weeks of age)	plasma concentrations of Aβ oligomers (diabetic db/db mice [5]; 14 weeks of age)	plasma concentrations of Aβ oligomers (diabetic db/db mice [5]; 28 weeks of age)	rotarod latency [6]	expression of 8dOHG in HPF (diabetic db/db mice [7])	expression of 8dOHG in CTX (diabetic db/db mice [7])	expression of GFAP in HPF (diabetic db/db mice [7])	expression of GFAP in CTX (diabetic db/db mice [7])	expression of Iba-1 in HPF (diabetic db/db mice [7])	expression of Iba-1 in CTX (diabetic db/db mice [7])	ATP level [8]	further results
CC(C)(Sc1cc(C(C)(C)C)c(O)c(C(C)(C)C)c1)Sc1cc(C(C)(C)C)c(O)c(C(C)(C)C)c1 [probucol, 2,6-ditert-butyl-4-[2-(3,5-ditert-butyl-4-hydroxyphenyl)sulfanylpropan-2-ylsulfanyl]phenol]	modestly attenuated	no significant effects	some increase of 8dOHG particularly in the CTX	significantly attenuated	no beneficial effects on CTX IgG extravasation	did not show BBB protection	partially offset hyperglycaemia-induced pancreatic beta cell death	did not change plasma Aβ40 levels	no beneficial effect	not observed	not observed	did not show any changes	attenuated	attenuated	no benefits	ameliorated similarly	no beneficial effects	no beneficial effects		
CC1(C)SC2(C=C(C(C)(C)C)C(=O)C(C(C)(C)C)=C2)C2(C=C(C(C)(C)C)C(=O)C(C(C)(C)C)=C2)S1 [SPQ, 2,4,9,11-tetrakis(1,1-dimethylethyl)-14,14-dimethyl-13,15-dithiadispiro[5.0.5.3]pentadeca-1,4,8,11-tetraene-3,10-dione]																			Enhanced increase in ATP levels	
CC(=O)O[C@@H]1CC[C@@]2(C)[C@H](CC[C@@H]3[C@@H]2CC[C@]2(C)[C@@H]([C@H](C)CCC(=O)Oc4c(C(C)(C)C)cc(SC(C)(C)Sc5cc(C(C)(C)C)c(O)c(C(C)(C)C)c5)cc4C(C)(C)C)CC[C@@H]32)C1 [HA-1, 2,6-di-tert-butyl-4-((2-((3,5-di-tert-butyl-4-hydroxyphenyl)thio)propan-2-yl)thio)phenyl (4R)-4-[(3R,5R,8R,9S,10S,13R,14S,17R)-3-acetoxy-10,13-dimethyl-2,3,4,5,6,7,8,9,11,12,14,15,16,17-tetradecahydro-1H-cyclopenta[a]phenanthren-17-yl]pentanoate]	completely normalised	no significant effects	substantially attenuated the cerebral oxidative stress levels	significantly attenuated	significantly reduced	significantly attenuated the BBB breakdown	even more profound effect on ameliorating cell death	did not change plasma Aβ40 levels	remarkably attenuated	significantly reduced	significantly reduced	significant increase in the latency	better efficacy particularly in HPF	attenuated	significant recovery	ameliorated similarly	substantially reduced the expression of Iba-1	substantially reduced the expression of Iba-1	Enhanced increase in ATP levels	Aβ42/40 ratio (diabetic db/db mice [5]; 14 weeks of age): remarkably reduced; Aβ42/40 ratio (diabetic db/db mice [5]; 28 weeks of age): remarkably reduced; plasma Aβ40 (diabetic db/db mice [5]; 28 weeks of age): increased plasma Aβ40 levels; plasma Aβ42 (diabetic db/db mice [5]; 28 weeks of age): significantly reduced
